Test results taken from patent US20230405003A1, “APPLICATION OF THYMIDINE DERIVATIVE IN PREPARATION OF DRUGS” (ONQUALITY PHARMACEUTICALS CHINA LTD., priority 2020, published 2023).
Like-named read-outs stand apart in the source and are kept apart here.

Assays:
blood cells = experiment: Blood cell count after 5-FU diarrhea experiment in mice; type: in vivo, mouse; conditions: orbital blood after 5-FU 70 mg/kg/d i.p. three days
Description: After completion of the experiments, the mice in the 5-FU control group and the experimental group were subject to blood collection at orbital. Blood cells were counted.

[1] = test system: hand-foot syndrome caused by capecitabine in SD rats; experiment: Rat model of hand-foot syndrome caused by capecitabine, gel application; type: in vivo; conditions: capecitabine 4000 mg/kg once daily, 40 days; for inhibition in vivo at 3 % / inhibition in vivo at 5 %: Rattus norvegicus, topical, 960 h; for inhibition in vivo at 3 % / Control Rate Forepaws / Control Rate Hindpaws / inhibition in vivo at 5 %: rats; for inhibition in vivo at 5 %: gel 5 wt%
Protocol: A rat animal model was established. 6-week aged female SD rats were administered with capecitabine by daily gavage. The degree of hand-foot syndrome in paws is similar, and there was no difference between the left and right paws. Similar to the human body, rats developed hand-foot syndrome after oral administration of capecitabine. The causes of the two are the same, and the disorder is also very similar. Therefore, rats are very good animal models for simulating the hand-foot syndrome caused by capecitabine.
(§1) After SD rats were fed and adapted for one week (about 200 g), the rats were divided into groups, with 10 rats in each group. Then, the rats were subject to gavage administration. Capecitabine was dissolved in a 1:1 mixed solution of castor oil and ethanol and diluted for three times with PBS buffer. After gavage, the rats were fixed with a fixed cylinder, and a gel of thymidine derivative (or a compounded gel of thymidine derivative and uridine derivative) was applied to double hind paws (about 1 cm*3 cm) of the rats in group of administration (the types and concentrations are shown in Table 4), and a blank gel was applied to the group of blank (as a blank control). After approximately 4 hours of application, the rats were released after 4 hours, wiped with clean water to remove any residual drug at the application site, and allowed back to the cage. The thymidine derivative gel (or the compounded gel of thymidine derivative and uridine derivative) was administered with gavage every day. The gavage and application tests are repeated daily until the group of blank has developed obvious hand-foot syndrome.
Table 4 lists the combinations of animal experiments of capecitabine and the thymidine derivative gel (or the compounded gel of thymidine derivative and uridine derivative) and the corresponding experimental results (wherein, the data in the column of control rate=the occurrence rate of hand-foot syndrome in group of blank—the occurrence rate of hand-foot syndrome in group of administration). […]

HaCaT cells = experiment: Relief of 5-FU proliferative toxicity to HaCaT cells (CCK-8 cell survival); type: cell-based; conditions: for Cell Survival Rate (increased percentage of cell survival compared with the Group of 5-FU): 5-Fu 20 μM, HaCaT cells
In short: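 HaCaT keratinocytes (5000–10000/well) cultured 24 h, then exposed 48 h to 5-FU alone or with thymidine derivative, or thymidine plus uridine derivative mix, versus solvent-matched blanks. Survival by CCK-8; value is % increase in survival over 5-FU alone, t-test.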

[2] = test system: pain in capecitabine hand-foot syndrome rats; experiment: Pain of hand-foot syndrome, mechanical sensitivity in rats (von Frey); type: in vivo, rat; conditions: capecitabine 4000 mg/kg hand-foot syndrome rats; thymidine derivative 3%
Protocol: According to the method of Examples 91-115, after administration of a thymidine derivative (at a concentration of 3%) and co-administration of a thymidine derivative (at a concentration of 1%) with a uridine derivative (at a concentration of 3%) to rat hand-foot syndrome models constructed from 4000 mg/kg of capecitabine for a period of time, pain analysis was performed on the rats, and the pain assessment model was mechanical sensitivity in rats (von Frey). The experimental steps were as follows: first, the rats were allowed to adapt in the room for 1 hour, then the rats were placed in an observation box with a metal mesh floor, and the mice were allowed to stay in the box for 20 minutes to adapt to the experimental platform. Next, a von Frey device was used to detect paw pain by stimulating the surface of the rat's palm with specially designed cilia to detect the mechanical sensitivity of the animal at strength of 0.4 g, 0.8 g, 1.5 g, 2.5 g, 4 g, 8 g, 10 g and 20 g (IITC Life Science, Woodland Hills, 2390 series). […] The rat movement response was considered to be a vague response, in which case the stimulation experiment was repeated.

[3] = test system: hand-foot syndrome caused by Cytarabine in rats; experiment: Rat model of hand-foot syndrome caused by cytarabine, gel application; type: in vivo; conditions: Cytarabine 120 mg/kg twice per day, gel 3 wt%, 30 days
Protocol: as §1
(§2) The effects of thymidine derivative or a combination of thymidine derivative and uridine derivative on the chemotherapeutic drug-induced hand-foot syndrome in a rat model were tested according to the method in Examples 30-40. At the same time, paws of rats after treatment with the drug were taken and observed for their inflammation by hematoxylin-eosin staining (HE) and immunohistochemical staining (IHC).
(§3) The test thymidine derivative or the combination of thymidine derivative and uridine derivative, as well as the final concentration of the test compounds were shown in Table 8. Table 8 lists the animal experiment combination of a chemotherapeutical drug and the thymidine derivative gel (or the compound gel of thymidine derivative and uridine derivative) and the corresponding experimental results (wherein, the data in the column of control rate=the occurrence rate of hand-foot syndrome in Group of blank—the occurrence rate of hand-foot syndrome in Group of administration).

[4] = test system: hand-foot syndrome caused by Acelarin (NUC-1031) in rats; experiment: Rat model of hand-foot syndrome caused by Acelarin (NUC-1031), gel application; type: in vivo; conditions: Acelarin (NUC-1031) 130 mg/kg intraperitoneal injection twice a week, gel 3 wt%, 30 days
Protocol: as §1, §2, §3

[5] = test system: hand-foot syndrome caused by Doxorubicin in rats; experiment: Rat model of hand-foot syndrome caused by doxorubicin, gel application; type: in vivo; conditions: Doxorubicin 7 mg/kg tail intravenous injection once every three days for 20 days, gel 3 wt%, 30 days
Protocol: as §1, §2, §3

[6] = test system: human colon cancer cell HCT116 xenograft; experiment: Effect of thymidine derivative gel on therapeutical effect of capecitabine, HCT116 xenograft nude mice; type: in vivo, mouse; conditions: oral capecitabine 1.5 mmol/kg, 14 days
Protocol: A BALB/C nude mouse (human colon cancer cell HCT116 xenograft) model was established. After the model was stable, the model mice were divided into four groups (in which the average tumor size of each of the 4 groups was kept as consistent as possible). Except the blank group (containing 5 mice), there were 10 mice in each group, which were subject to gavage and application experiments.
Capecitabine was dissolved in a mixed solution of castor oil:ethanol=1:1 (volume ratio). Prior to gavage, the mixture was diluted with PBS to the desired concentration (diluted for about 3 times with PBS solution). […]
A: Group of blank: 5 mice with tumors, no gavage and no drug application; B: blank group: 10 mice with tumors, oral gavage with capecitabine (1.5 mmol/kg), application with blank gel on the back (once per day for 14 days); C: 0.5% T1 group: 10 mice with tumors, oral gavage of capecitabine, application with 0.5% T1 gel (administration method and frequency are the same as those in group B); D: 2% T1 gel group: 10 mice with tumors, oral gavage of capecitabine, application of 2% T1 gel (administration method and frequency are the same as those in group B). […] The tumor size was measured and recorded every 2 days. After 14 days of the experiment, the mice were dissected to take out the tumor, which was weighed and recorded.

[7] = gel 3 wt%, read-out: Control Rate Forepaws
[8] = gel 3 wt%, read-out: Control Rate Hindpaws
[9] = selected compound final concentration 12.5 μM
[10] = selected compound final concentration 25 μM
[11] = selected compound final concentration 50 μM

O=c1[nH]cc(F)c(=O)[nH]1 [5-FU, fluorouracil (5-FU)]
blood cells (blood cells): can reduce all the blood cells that could be detected

Cc1cn([C@H]2C[C@H](O)[C@@H](COC(=O)C(C)(C)C)O2)c(=O)[nH]c1=O [T4]
inhibition in vivo at 3 % [1, 7]: 28.6%
inhibition in vivo at 3 % [1, 8]: 42.9%
Control Rate ([1]; SD rats, gel 2 wt% on hind paws): 32.86%
activation at 1 µM (HaCaT cells; Homo sapiens, HaCaT, increase vs Group of 5-FU, 5-FU 20 μM, compound 1 μM, 48 h, read-out: Cell Survival Rate): 20 to 36%
activation at 10 µM (HaCaT cells; Homo sapiens, HaCaT, increase vs Group of 5-FU, 5-FU 20 μM, compound 10 μM, 48 h, read-out: Cell Survival Rate): 65 to 72%
activation at 100 µM (HaCaT cells; Homo sapiens, HaCaT, increase vs Group of 5-FU, 5-FU 20 μM, compound 100 μM, 48 h, read-out: Cell Survival Rate): 80 to 90%
activation at 500 µM (HaCaT cells; Homo sapiens, HaCaT, increase vs Group of 5-FU, 5-FU 20 μM, compound 500 μM, 48 h, read-out: Cell Survival Rate): 70 to 77%
activation at 1000 µM (HaCaT cells; Homo sapiens, HaCaT, increase vs Group of 5-FU, 5-FU 20 μM, compound 1000 μM, 48 h, read-out: Cell Survival Rate): 2 to 7%
pain in rats (von Frey mechanical sensitivity) [2]: did not significantly improve pain in rats

CCC1(CC(C)=O)OCCc2c1[nH]c1c(CC(=O)OC[C@H]3O[C@@H](n4cc(C)c(=O)[nH]c4=O)C[C@@H]3O)cccc21 (stereo partly shown) [T26]
Control Rate Forepaws ([1]; gel 1 wt%): 22.22%
Control Rate Hindpaws ([1]; gel 1 wt%): 44.44%
Control Rate Forepaws ([1]; gel 3 wt%): 57.14%
Control Rate Hindpaws ([1]; gel 3 wt%): 71.43%
pain in rats (von Frey mechanical sensitivity) [2]: could significantly improve pain in rats

CC(=O)Oc1ccccc1C(=O)OC[C@H]1O[C@@H](n2cc(C)c(=O)[nH]c2=O)C[C@@H]1O [T37]
inhibition in vivo at 3 % [1, 7]: 28.6%
inhibition in vivo at 3 % [1, 8]: 42.9%
Control Rate Forepaws [3]: 22.22%
Control Rate Hindpaws [3]: 44.44%
Control Rate Forepaws [4]: 42.86%
Control Rate Hindpaws [4]: 71.43%
Cell Survival Rate (increased percentage of cell survival compared with the Group of 5-FU) (HaCaT cells; selected compound final concentration 0.8 μM): 36%-44%
Cell Survival Rate (increased percentage of cell survival compared with the Group of 5-FU) (HaCaT cells; selected compound final concentration 1.6 μM): 55%-62%
Cell Survival Rate (increased percentage of cell survival compared with the Group of 5-FU) (HaCaT cells; selected compound final concentration 3.13 μM): 61%-69%
Cell Survival Rate (increased percentage of cell survival compared with the Group of 5-FU) (HaCaT cells; selected compound final concentration 6.25 μM): 68%-76%
Cell Survival Rate (increased percentage of cell survival compared with the Group of 5-FU) (HaCaT cells; [9]): 52%-60%
Cell Survival Rate (increased percentage of cell survival compared with the Group of 5-FU) (HaCaT cells; [10]): 49%-57%
Cell Survival Rate (increased percentage of cell survival compared with the Group of 5-FU) (HaCaT cells; [11]): 52%-59%
pain in rats (von Frey mechanical sensitivity) [2]: could significantly improve pain in rats

COc1ccc2cc([C@@H](C)C(=O)OC[C@H]3O[C@@H](n4cc(C)c(=O)[nH]c4=O)C[C@@H]3O)ccc2c1 [T41]
Control Rate Forepaws [5]: 57.14%
Control Rate Hindpaws [5]: 42.86%
inhibition in vivo at 3 % [1, 7]: 50%
inhibition in vivo at 3 % [1, 8]: 62.5%
inhibition in vivo at 5 % ([1]; read-out: Control Rate Forepaws): 50%
inhibition in vivo at 5 % ([1]; read-out: Control Rate Hindpaws): 75%
Cell Survival Rate (increased percentage of cell survival compared with the Group of 5-FU) (HaCaT cells; [9]): 39%-46%
Cell Survival Rate (increased percentage of cell survival compared with the Group of 5-FU) (HaCaT cells; [10]): 47%-55%
Cell Survival Rate (increased percentage of cell survival compared with the Group of 5-FU) (HaCaT cells; [11]): 44%-51%
pain in rats (von Frey mechanical sensitivity) [2]: could significantly improve pain in rats

CCCCCOC(=O)Nc1nc(=O)n([C@@H]2O[C@H](C)[C@@H](O)[C@H]2O)cc1F [capecitabine, reference compound]
volume of tumor tissue versus group without capecitabine gavage [6]: significantly smaller than that in Group A
